According to patent US20180169085A1, “Combination Therapy for Hemorrhagic Injury” (Augusta University Reserch Institute, Inc., priority 2016, published 2018):
“Also recorded” adds a separate entry of the source.

What was measured:
[1] = system: rats subjected to hemorrhagic injury (HI); test: Survival after hemorrhagic injury without resuscitation; assay type: in vivo, rat; conditions: p<0.05 versus HI+Veh; for survival time: FIG. 4
Description: Male Sprague Dawley rats (250-350 g) were obtained from Charles River Laboratory (Wilmington, Mass., USA). […] All animals were housed in Augusta University animal facility during the experiments.
The animals were fasted overnight (water allowed ad libitum) prior to the sham or hemorrhagic injury (HI) procedure. […] Femoral vein was cannulated to administer fluids. Surgical sites were bathed with bupivacaine. Sham animals were not subjected to bleeding or resuscitation. Upon awakening, the animals in HI groups were bled rapidly within the first 10 min to a MAP of 40±5 mmHg. The bleeding was continued for 45 min, maintaining the low MAP, until 60% of circulatory blood volume was withdrawn. The animals were maintained in the state of shock by maintaining MAP at 40±5 for another 45 min. During this time not more than 40% of the shed blood volume in the form of Ringer lactate was given to maintain the blood pressure. Resuscitation was performed with Ringer lactate for one hour on animals in the respective groups. Vehicle (dimethyl sulfoxide [DMSO]; 120 μL/mouse) or drug was administered at 10 min from the onset of resuscitation or immediately after shock period when there was no resuscitation.
Rats were subjected to HI and Veh, RSV or SRT1720 administered (n=5-6). (RSV: 10 mg/Kg body weight; SRT1720: 2 mg/Kg body weight.

[2] = system: rats subjected to hemorrhagic injury (HI); test: 10-day survival study after hemorrhagic injury with resuscitation; assay type: in vivo, rat
Description: Male Sprague Dawley rats (250-350 g) were obtained from Charles River Laboratory (Wilmington, Mass., USA). The experiments performed in this study including surgical procedures were approved by the Institutional Animal Care and Use Committee (IACUC) at Augusta University. All animals were housed in Augusta University animal facility during the experiments.
The animals were fasted overnight (water allowed ad libitum) prior to the sham or hemorrhagic injury (HI) procedure. Hemorrhagic procedure was as described before with some modification (Jian, B. et al., Mol. Med., 18:209-14 (2012). The animals were anesthetized with 2.5% isoflurane (Henry Schein, Dublin, Ohio, USA) and were placed on Plexiglas plate in a supine position. Isoflurane was administered in oxygen using an anesthetic vaporizer. Midline laparotomy (5 cm) was performed in both sham and HI animals to induce soft tissue trauma. Incision was closed aseptically in two layers with sutures. Two femoral arteries and one femoral vein were cannulated (PE-50 tubing), one artery was hooked up to a Blood Pressure Analyzer (Digi-Med; Micro-Med Inc., Louisville, Ky., USA) to monitor mean arterial pressure (MAP) and bleeding was performed through the other artery. Femoral vein was cannulated to administer fluids. Surgical sites were bathed with bupivacaine. Sham animals were not subjected to bleeding or resuscitation. […]

[3] = system: rats subjected to hemorrhagic injury (HI); test: Cardiac function (dP/dt) after hemorrhagic injury in rat model; assay type: in vivo; conditions: RSV treatment vs HI+Veh, n=4-6, p<0.05 vs sham, FIG. 1
Description: Male Sprague Dawley rats (250-350 g) were obtained from Charles River Laboratory (Wilmington, Mass., USA). The experiments performed in this study including surgical procedures were approved by the Institutional Animal Care and Use Committee (IACUC) at Augusta University. All animals were housed in Augusta University animal facility during the experiments. The animals were fasted overnight (water allowed ad libitum) prior to the sham or hemorrhagic injury (HI) procedure. Hemorrhagic procedure was as described before with some modification (Jian, B. et al., Mol. Med., 18:209-14 (2012). The animals were anesthetized with 2.5% isoflurane (Henry Schein, Dublin, Ohio, USA) and were placed on Plexiglas plate in a supine position. Isoflurane was administered in oxygen using an anesthetic vaporizer. Midline laparotomy (5 cm) was performed in both sham and HI animals to induce soft tissue trauma. Incision was closed aseptically in two layers with sutures. Two femoral arteries and one femoral vein were cannulated (PE-50 tubing), one artery was hooked up to a Blood Pressure Analyzer (Digi-Med; Micro-Med Inc., Louisville, Ky., USA) to monitor mean arterial pressure (MAP) and bleeding was performed through the other artery. Femoral vein was cannulated to administer fluids. Surgical sites were bathed with bupivacaine. Sham animals were not subjected to bleeding or resuscitation. […]

For O=C(O)c1cccnc1 [niacin, nicotinic acid], the survival ([1]; niacin 1, 5, 10 mg/kg, without resuscitation, all curves, FIG. 6) was “prolonged survival”.
In the case of Oc1ccc(/C=C/c2cc(O)cc(O)c2)cc1 [resveratrol, 3,5,4-tribydroxystilbene], the survival time ([1]; RSV 10 mg/Kg body weight, absence of resuscitation) was “survived for a significantly longer period of time”, the mean weight gain ([2]; 10-day survival study, RSV 10 mg/kg, data not shown) was “significantly improved” and the mortality ([2]; 10-day survival, RSV 10 mg/kg body weight along with resuscitation fluid, p<0.05, FIG. 3) was “reduce mortality significantly; also recorded: significantly reduced”. The “+dp/dt and −dp/dt” value [3] was “restored”.
For O=C(Nc1ccccc1-c1cn2c(CN3CCNCC3)csc2n1)c1cnc2ccccc2n1 [SRT1720], the survival time ([1]; SRT1720 2 mg/Kg body weight, without resuscitation) was “Prolong Life”.
